Source: ChEMBL document CHEMBL1201862, “PubChem BioAssay data set” (2004)
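Five compound concentrations were applied to cells in 96-well plates for 48 hours; endpoints were derived by simple linear interpolation of the resulting dose-response curve. GI50 = concentration required for 50% inhibition of growth.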 Activity calls are given as the source filed them. Cut-off read from the data, not from the text of the source: active = GI50 up to about 1.1 µM and inactive = higher.

Columns and labels:
Test in all cases: DTP human tumour cell line panel, 48 h
786-0 = test system: 786-0
NCI/ADR-RES = test system: NCI/ADR-RES
CAKI-1 = test system: CAKI-1
K562 = test system: K562
Malme-3M = test system: Malme-3M
MCF7 = test system: MCF7
A498 = test system: A498
CCRF-CEM = test system: CCRF-CEM
UACC-62 = test system: UACC-62
MOLT-4 = test system: MOLT-4
EKVX = test system: EKVX
T47D = test system: T47D
HOP-62 = test system: HOP-62
HCT-116 = test system: HCT-116
MDA-MB-231 = test system: MDA-MB-231
SK-MEL-5 = test system: SK-MEL-5
NCI-H522 = test system: NCI-H522
SNB-75 = test system: SNB-75
SW-620 = test system: SW-620
SN12C = test system: SN12C
TK-10 = test system: TK-10
RXF 393 = test system: RXF 393
SR = test system: SR
NCI-H23 = test system: NCI-H23
OVCAR-4 = test system: OVCAR-4
HOP-92 = test system: HOP-92
SK-OV-3 = test system: SK-OV-3
HCT-15 = test system: HCT-15
RPMI-8226 = test system: RPMI-8226
NCI-H460 = test system: NCI-H460
COLO 205 = test system: COLO 205
Hs-578T = test system: Hs-578T
MDA-N = test system: MDA-N
DU-145 = test system: DU-145
BT-549 = test system: BT-549
UO-31 = test system: UO-31
MDA-MB-435 = test system: MDA-MB-435
SF-295 = test system: SF-295
PC-3 = test system: PC-3
UACC-257 = test system: UACC-257
M14 = test system: M14
OVCAR-3 = test system: OVCAR-3
OVCAR-8 = test system: OVCAR-8
ACHN = test system: ACHN
SNB-19 = test system: SNB-19
A549 = test system: A549
U-251 = test system: U-251
HT-29 = test system: HT-29
KM12 = test system: KM12
LOX IMVI = test system: LOX IMVI
SK-MEL-28 = test system: SK-MEL-28
IGROV-1 = test system: IGROV-1
SK-MEL-2 = test system: SK-MEL-2
NCI-H226 = test system: NCI-H226
HL-60 = test system: HL-60
SF-539 = test system: SF-539
OVCAR-5 = test system: OVCAR-5
SF-268 = test system: SF-268

Compound: O=C1N/C(=N/N=C/c2ccccc2)N/C1=C\c1cccs1
- GI50 (786-0): 18.5 µM (inactive)
- GI50 (NCI/ADR-RES): 15.2 µM (inactive)
- GI50 (CAKI-1): 16.7 µM (inactive)
- GI50 (K562): 12.2 µM (inactive)
- GI50 (Malme-3M): 8.99 µM (inactive)
- GI50 (MCF7): 9.84 µM (inactive)
- GI50 (A498): 13 µM (inactive)
- GI50 (CCRF-CEM): 13.3 µM (inactive)
- GI50 (UACC-62): 20.1 µM (inactive)
- GI50 (MOLT-4): 27.5 µM (inactive)
- GI50 (EKVX): 21.5 µM (inactive)
- GI50 (T47D): 28.2 µM (inactive)
- GI50 (HOP-62): 18.3 µM (inactive)
- GI50 (HCT-116): 17.3 µM (inactive)
- GI50 (MDA-MB-231): 18.6 µM (inactive)
- GI50 (SK-MEL-5): 7.53 µM (inactive)
- GI50 (NCI-H522): 1.98 µM (inactive)
- GI50 (SNB-75): 22 µM (inactive)
- GI50 (SW-620): 11.7 µM (inactive)
- GI50 (SN12C): 19.1 µM (inactive)
- GI50 (TK-10): 23.1 µM (inactive)
- GI50 (RXF 393): 17.7 µM (inactive)
- GI50 (SR): 28.2 µM (inactive)
- GI50 (NCI-H23): 15.9 µM (inactive)
- GI50 (OVCAR-4): 22.3 µM (inactive)
- GI50 (HOP-92): 15.8 µM (inactive)
- GI50 (SK-OV-3): 18.6 µM (inactive)
- GI50 (HCT-15): 17.9 µM
- GI50 (RPMI-8226): 16.8 µM (inactive)
- GI50 (NCI-H460): 31.8 µM (inactive)
- GI50 (COLO 205): 8.13 µM (inactive)
- GI50 (Hs-578T): 2.77 µM (inactive)
- GI50 (MDA-N): 8.32 µM (inactive)
- GI50 (DU-145): 18.5 µM (inactive)
- GI50 (BT-549): 15.2 µM (inactive)
- GI50 (UO-31): 21.8 µM (inactive)
- GI50 (MDA-MB-435): 7.52 µM (inactive)
- GI50 (SF-295): 17.4 µM (inactive)
- GI50 (PC-3): 10 µM (inactive)
- GI50 (UACC-257): 30.5 µM (inactive)
- GI50 (M14): 29.3 µM (inactive)
- GI50 (OVCAR-3): 15.4 µM (inactive)
- GI50 (OVCAR-8): 13 µM (inactive)
- GI50 (ACHN): 15.9 µM (inactive)
- GI50 (SNB-19): 21.9 µM (inactive)
- GI50 (A549): 25.6 µM (inactive)
- GI50 (U-251): 15.6 µM (inactive)
- GI50 (HT-29): 19.1 µM (inactive)
- GI50 (KM12): 18.4 µM (inactive)
- GI50 (LOX IMVI): 8.34 µM (inactive)
- GI50 (SK-MEL-28): 15.8 µM (inactive)
- GI50 (IGROV-1): 14.5 µM (inactive)
- GI50 (SK-MEL-2): 8.57 µM (inactive)
- GI50 (NCI-H226): 10.6 µM (inactive)
- GI50 (HL-60): 12.3 µM (inactive)
- GI50 (SF-539): 10.4 µM (inactive)
- GI50 (OVCAR-5): 28.6 µM (inactive)
- GI50 (SF-268): 9.89 µM (inactive)

Compound: Cc1ncc(C/N=C/c2ccc(Cl)cc2)c(N)n1
- GI50 (786-0): > 100 µM (inactive)
- GI50 (NCI/ADR-RES): > 100 µM (inactive)
- GI50 (CAKI-1): > 100 µM (inactive)
- GI50 (K562): > 100 µM (inactive)
- GI50 (Malme-3M): > 100 µM (inactive)
- GI50 (MCF7): > 100 µM (inactive)
- GI50 (A498): > 100 µM (inactive)
- GI50 (CCRF-CEM): > 100 µM (inactive)
- GI50 (UACC-62): > 100 µM (inactive)
- GI50 (MOLT-4): > 100 µM (inactive)
- GI50 (EKVX): > 100 µM (inactive)
- GI50 (T47D): > 100 µM (inactive)
- GI50 (HOP-62): > 100 µM (inactive)
- GI50 (HCT-116): > 100 µM (inactive)
- GI50 (MDA-MB-231): > 100 µM (inactive)
- GI50 (SK-MEL-5): > 100 µM (inactive)
- GI50 (NCI-H522): > 100 µM (inactive)
- GI50 (SNB-75): > 100 µM (inactive)
- GI50 (SW-620): > 100 µM (inactive)
- GI50 (SN12C): > 100 µM (inactive)
- GI50 (TK-10): > 100 µM (inactive)
- GI50 (RXF 393): > 100 µM (inactive)
- GI50 (SR): > 100 µM (inactive)
- GI50 (NCI-H23): > 100 µM (inactive)
- GI50 (OVCAR-4): > 100 µM (inactive)
- GI50 (HOP-92): > 100 µM (inactive)
- GI50 (SK-OV-3): > 100 µM (inactive)
- GI50 (HCT-15): > 100 µM
- GI50 (RPMI-8226): > 100 µM (inactive)
- GI50 (NCI-H460): > 100 µM (inactive)
- GI50 (COLO 205): > 100 µM (inactive)
- GI50 (Hs-578T): > 100 µM (inactive)
- GI50 (MDA-N): > 100 µM (inactive)
- GI50 (DU-145): > 100 µM (inactive)
- GI50 (BT-549): > 100 µM (inactive)
- GI50 (UO-31): > 100 µM (inactive)
- GI50 (MDA-MB-435): > 100 µM (inactive)
- GI50 (SF-295): > 100 µM (inactive)
- GI50 (PC-3): > 100 µM (inactive)
- GI50 (UACC-257): > 100 µM (inactive)
- GI50 (M14): > 100 µM (inactive)
- GI50 (OVCAR-3): > 100 µM (inactive)
- GI50 (OVCAR-8): > 100 µM (inactive)
- GI50 (ACHN): > 100 µM (inactive)
- GI50 (SNB-19): > 100 µM (inactive)
- GI50 (A549): > 100 µM (inactive)
- GI50 (U-251): > 100 µM (inactive)
- GI50 (HT-29): > 100 µM (inactive)
- GI50 (KM12): > 100 µM (inactive)
- GI50 (LOX IMVI): > 100 µM (inactive)
- GI50 (SK-MEL-28): > 100 µM (inactive)
- GI50 (IGROV-1): > 100 µM (inactive)
- GI50 (SK-MEL-2): > 100 µM (inactive)
- GI50 (NCI-H226): > 100 µM (inactive)
- GI50 (HL-60): > 100 µM (inactive)
- GI50 (SF-539): > 100 µM (inactive)
- GI50 (OVCAR-5): > 100 µM (inactive)
- GI50 (SF-268): > 100 µM (inactive)
